What was measured:
human GR [1] = target: T1, human GR (Homo sapiens, UniProt P04150); experiment: Transrepression Assay (GITAR), TNFα-β-lactamase reporter in U937 cells; assay type: cell-based; parameters: U937 cells contain an endogenous glucocorticoid receptor (GR); endogenous in cells; host or cells: U937 cells stably transfected with the TNF-alpha promoter/beta-lactamase reporter; settings: for GITAR > GRAMM % SEP: GITAR Emax minus GRAMMER Emax; for EC50: U937 cells, inflection point, read-out: Transrepression U937 Cells GITAR IP
T1 sequence (P04150 1-777): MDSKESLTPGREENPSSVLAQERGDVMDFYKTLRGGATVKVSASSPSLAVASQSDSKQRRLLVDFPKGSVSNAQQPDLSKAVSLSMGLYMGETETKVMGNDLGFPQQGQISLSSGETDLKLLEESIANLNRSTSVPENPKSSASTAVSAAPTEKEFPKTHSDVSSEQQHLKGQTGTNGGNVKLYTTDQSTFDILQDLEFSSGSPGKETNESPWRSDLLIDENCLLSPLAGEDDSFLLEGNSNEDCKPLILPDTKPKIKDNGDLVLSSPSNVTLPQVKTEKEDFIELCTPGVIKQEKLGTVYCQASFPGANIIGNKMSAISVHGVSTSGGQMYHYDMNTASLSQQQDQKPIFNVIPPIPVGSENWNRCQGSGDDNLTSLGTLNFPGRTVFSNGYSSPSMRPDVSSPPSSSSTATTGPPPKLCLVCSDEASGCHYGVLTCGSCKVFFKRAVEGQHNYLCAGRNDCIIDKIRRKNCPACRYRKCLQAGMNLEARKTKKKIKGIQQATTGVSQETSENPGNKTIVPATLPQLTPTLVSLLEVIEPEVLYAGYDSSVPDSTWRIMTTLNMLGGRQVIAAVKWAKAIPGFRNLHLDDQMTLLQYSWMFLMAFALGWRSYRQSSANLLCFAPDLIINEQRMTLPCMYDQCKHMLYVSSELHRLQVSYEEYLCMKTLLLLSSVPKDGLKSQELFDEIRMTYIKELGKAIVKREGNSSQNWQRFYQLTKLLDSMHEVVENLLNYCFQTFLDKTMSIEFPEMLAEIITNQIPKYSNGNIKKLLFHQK
Method in brief: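 U937 cells with endogenous GR, stably carrying TNFα promoter–β-lactamase, preincubated with compound 30–45 min at 37° C, then stimulated with PMA 5 ng/ml and LPS 100 ng/ml (final) ~18 hr. Read-out via CCF2-AM loading; repression by 100 nM dexamethasone set as 100%.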

human GR [2] = target: T1, human GR; experiment: Trans-Activation Modulation of Glucocorticoid Receptor (GRAMMER), MMTV-LUC reporter, agonist mode; assay type: cell-based; parameters: endogenous in cells; settings: for Emax: A549, A549 cells, maximum activity, read-out: Transactivation A549 Cells GRAMMER Emax; for EC50: A549 cells, inflection point, read-out: Transactivation A549 Cells GRAMMER IP
Method in brief: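 Readout is luciferase from a modified MMTV LTR promoter after 24 h compound exposure alongside 10 nM dexamethasone (100% activity reference), DMSO ≤1%.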

[3] = U-937, U937 cells, maximum activity, read-out: Transrepression U937 Cells GITAR Emax
[4] = U-937, activity repressed by 100 nM dexamethasone alone set as 100%, read-out: maximal activity in the transrepression (GITAR) assay

C[C@]12Cc3cnn(-c4ccccc4)c3C=C1CC[C@@H]2CN(CCc1ccccn1)S(=O)(=O)CC(F)(F)F [Example 138, 2,2,2-trifluoro-N-{[(4αR,5S)-4α-methyl-1-phenyl-1,4,4α,5,6,7-hexahydrocyclopenta[f]indazol-5-yl]methyl}-N-(2-pyridin-2-ylethyl)ethanesulfonamide]
GITAR > GRAMM % SEP (human GR [1]): 5.6% | EC50 (human GR [1]): 433 nM | Emax (human GR [1]; [3]): 83.7% | Emax (human GR [1]; [4]): > 5% | Emax (human GR [2]): 78.1% | EC50 (human GR [2]): 203 nM

COc1ccccc1CCN(C[C@H]1CCC2=Cc3c(cnn3-c3ccccc3)C[C@@]21C)S(=O)(=O)CC(F)(F)F [Example 139, 2,2,2-trifluoro-N-[2-(2-methoxyphenyl)ethyl]-N-{[(4αR,5S)-4α-methyl-1-phenyl-1,4,4α,5,6,7-hexahydrocyclopenta[f]indazol-5-yl]methyl}ethanesulfonamide]
GITAR > GRAMM % SEP (human GR [1]): 1.7% | EC50 (human GR [1]): 798 nM | Emax (human GR [1]; [3]): 72.4% | Emax (human GR [1]; [4]): > 5% | Emax (human GR [2]): 70.7% | EC50 (human GR [2]): 262 nM

C[C@]12Cc3cnn(-c4ccccc4)c3C=C1CC[C@@H]2CN(CCc1ccccn1)S(=O)(=O)Cc1cccnc1 [Example 140, N-{[(4αR,5S)-4α-methyl-1-phenyl-1,4,4α,5,6,7-hexahydrocyclopenta[f]indazol-5-yl]methyl}-1-pyridin-3-yl-N-(2-pyridin-2-ylethyl)methanesulfonamide]
EC50 (human GR [1]): 1570 nM | Emax (human GR [1]; [3]): 37% | Emax (human GR [1]; [4]): > 5% | Emax (human GR [2]): 21.3% | EC50 (human GR [2]): 704 nM

C[C@]12Cc3cnn(-c4ccccc4)c3C=C1CC[C@@H]2CN(CCc1ccccc1O)S(=O)(=O)Cc1cccnc1 [Example 141, N-[2-(2-hydroxyphenyl)ethyl]-N-{[(4αR,5S)-4α-methyl-1-phenyl-1,4,4α,5,6,7-hexahydrocyclopenta[f]indazol-5-yl]methyl}-1-pyridin-3-ylmethanesulfonamide]
GITAR > GRAMM % SEP (human GR [1]): 39.7% | EC50 (human GR [1]): 400 nM | Emax (human GR [1]; [3]): 62.2% | Emax (human GR [1]; [4]): > 5% | Emax (human GR [2]): 22.6% | EC50 (human GR [2]): 441 nM

C[C@]12Cc3cnn(-c4ccc(F)cc4)c3C=C1CC[C@@H]2CN(CC(O)c1ccccn1)S(=O)(=O)CC(F)(F)F (stereo partly drawn) [Example 142, 2,2,2-trifluoro-N-{[(4αR,5S)-1-(4-fluorophenyl)-4α-methyl-1,4,4α,5,6,7-hexahydrocyclopenta[f]indazol-5-yl]methyl}-N-(2-hydroxy-2-pyridin-2-ylethyl)ethanesulfonamide]
GITAR > GRAMM % SEP (human GR [1]): 14.4% | EC50 (human GR [1]): 140 nM | Emax (human GR [1]; [3]): 92.5% | Emax (human GR [1]; [4]): > 5% | Emax (human GR [2]): 78.1% | EC50 (human GR [2]): 123 nM

C[C@]12Cc3cnn(-c4ccc(F)cc4)c3C=C1CC[C@@H]2CN(CC(O)c1cccnc1)S(=O)(=O)CC(F)(F)F (stereo partly drawn) [Example 143, 2,2,2-trifluoro-N-{[(4αR,5S)-1-(4-fluorophenyl)-4α-methyl-1,4,4α,5,6,7-hexahydrocyclopenta[f]indazol-5-yl]methyl}-N-(2-hydroxy-2-pyridin-3-ylethyl)ethanesulfonamide]
GITAR > GRAMM % SEP (human GR [1]): 7.7% | EC50 (human GR [1]): 225 nM | Emax (human GR [1]; [3]): 91.2% | Emax (human GR [1]; [4]): > 5% | Emax (human GR [2]): 83.5% | EC50 (human GR [2]): 252 nM

C[C@]12Cc3cnn(-c4ccc(F)cc4)c3C=C1CC[C@@H]2CN(CC(O)c1ccncc1)S(=O)(=O)CC(F)(F)F (stereo partly drawn) [Example 144, 2,2,2-trifluoro-N-{[(4αR,5S)-1-(4-fluorophenyl)-4α-methyl-1,4,4α,5,6,7-hexahydrocyclopenta[f]indazol-5-yl]methyl}-N-(2-hydroxy-2-pyridin-4-ylethyl)ethanesulfonamide]
GITAR > GRAMM % SEP (human GR [1]): 18.1% | EC50 (human GR [1]): 334 nM | Emax (human GR [1]; [3]): 91.6% | Emax (human GR [1]; [4]): > 5% | Emax (human GR [2]): 73.6% | EC50 (human GR [2]): 397 nM

C[C@]12Cc3cnn(-c4ccc(F)cc4)c3C=C1CC[C@@H]2CN(CC(OS(=O)(=O)CC(F)(F)F)c1ccccn1)S(=O)(=O)CC(F)(F)F (stereo partly drawn) [Example 145, 2-{{[(4αR,5S)-1-(4-fluorophenyl)-4α-methyl-1,4,4α,5,6,7-hexahydrocyclopenta[f]indazol-5-yl]methyl}[(2,2,2-trifluoroethyl)sulfonyl]amino}-1-pyridin-2-ylethyl 2,2,2-trifluoroethanesulfonate]
GITAR > GRAMM % SEP (human GR [1]): 33.3% | EC50 (human GR [1]): 196 nM | Emax (human GR [1]; [3]): 93.5% | Emax (human GR [1]; [4]): > 5% | Emax (human GR [2]): 60.2% | EC50 (human GR [2]): 204 nM

CC(CN(C[C@H]1CCC2=Cc3c(cnn3-c3ccc(F)cc3)C[C@@]21C)S(=O)(=O)CC(F)(F)F)c1cccnc1 (stereo partly drawn) [Example 146, 2,2,2-trifluoro-N-{[(4αR,5S)-1-(4-fluorophenyl)-4α-methyl-1,4,4α,5,6,7-hexahydrocyclopenta[f]indazol-5-yl]methyl}-N-(2-pyridin-3-ylpropyl)ethanesulfonamide]
GITAR > GRAMM % SEP (human GR [1]): 1.8% | EC50 (human GR [1]): 308 nM | Emax (human GR [1]; [3]): 93.3% | Emax (human GR [1]; [4]): > 5% | Emax (human GR [2]): 91.5% | EC50 (human GR [2]): 263 nM

C[C@]12Cc3cnn(-c4ccc(F)cc4)c3C=C1CC[C@@H]2CN(CCC(N)C(F)(F)F)S(=O)(=O)CC(F)(F)F (stereo partly drawn) [Example 147, N-(3-amino-4,4,4-trifluorobutyl)-2,2,2-trifluoro-N-{[(4aR,5S)-1-(4-fluorophenyl)-4α-methyl-1,4,4α,5,6,7-hexahydrocyclopenta[f]indazol-5-yl]methyl}ethanesulfonamide]
GITAR > GRAMM % SEP (human GR [1]): 0.3% | EC50 (human GR [1]): 708 nM | Emax (human GR [1]; [3]): 78.4% | Emax (human GR [1]; [4]): > 5% | Emax (human GR [2]): 78.1% | EC50 (human GR [2]): 475 nM

CCCS(=O)(=O)N(CC(O)C(F)(F)F)C[C@H]1CCC2=Cc3c(cnn3-c3ccc(F)cc3)C[C@@]21C (stereo partly drawn) [Example 148, N-{[(4αR,5S)-1-(4-fluorophenyl)-4α-methyl-1,4,4α,5,6,7-hexahydrocyclopenta[f]indazol-5-yl]methyl}-N-(3,3,3-trifluoro-2-hydroxypropyl)propane-1-sulfonamide]
GITAR > GRAMM % SEP (human GR [1]): 14.9% | EC50 (human GR [1]): 858 nM | Emax (human GR [1]; [3]): 77.6% | Emax (human GR [1]; [4]): > 5% | Emax (human GR [2]): 62.6% | EC50 (human GR [2]): 403 nM

C[C@]12Cc3cnn(-c4ccc(F)cc4)c3C=C1CC[C@@H]2CN(CC(O)C(F)(F)F)S(=O)(=O)Cc1cccnc1 (stereo partly drawn) [Example 149, N-{[(4αR,5S)-1-(4-fluorophenyl)-4α-methyl-1,4,4α,5,6,7-hexahydrocyclopenta[f]indazol-5-yl]methyl}-1-pyridin-3-yl-N-(3,3,3-trifluoro-2-hydroxypropyl)methanesulfonamide]
GITAR > GRAMM % SEP (human GR [1]): 44.7% | EC50 (human GR [1]): 250 nM | Emax (human GR [1]; [3]): 77.1% | Emax (human GR [1]; [4]): > 5% | Emax (human GR [2]): 32.4% | EC50 (human GR [2]): 351 nM

Cn1cc(S(=O)(=O)N(CCc2ccccn2)C[C@H]2CCC3=Cc4c(cnn4-c4ccc(F)cc4)C[C@@]32C)c(C(F)(F)F)n1 [Example 150, N-{[(4αR,5S)-1-(4-fluorophenyl)-4α-methyl-1,4,4α,5,6,7-hexahydrocyclopenta[f]indazol-5-yl]methyl}-1-methyl-N-(2-pyridin-2-ylethyl)-3-(trifluoromethyl)-1H-pyrazole-4-sulfonamide]
GITAR > GRAMM % SEP (human GR [1]): 33.7% | EC50 (human GR [1]): 376 nM | Emax (human GR [1]; [3]): 79.3% | Emax (human GR [1]; [4]): > 5% | Emax (human GR [2]): 45.6% | EC50 (human GR [2]): 346 nM

CCCS(=O)(=O)N(CCc1ccccn1)C[C@H]1CCC2=Cc3c(cnn3-c3ccc(F)cc3)C[C@@]21C [Example 151, N-{[(4αR,5S)-1-(4-fluorophenyl)-4α-methyl-1,4,4α,5,6,7-hexahydrocyclopenta[f]indazol-5-yl]methyl}-N-(2-pyridin-2-ylethyl)propane-1-sulfonamide]
GITAR > GRAMM % SEP (human GR [1]): 7.2% | EC50 (human GR [1]): 551 nM | Emax (human GR [1]; [3]): 83.3% | Emax (human GR [1]; [4]): > 5% | Emax (human GR [2]): 76% | EC50 (human GR [2]): 421 nM

C[C@]12Cc3cnn(-c4ccc(F)cc4)c3C=C1CC[C@@H]2CN(CCc1ccccn1)S(=O)(=O)CCN1C(=O)c2ccccc2C1=O [Example 152, 2-(1,3-dioxo-1,3-dihydro-2H-isoindol-2-yl)-N-{[(4αR,5S)-1-(4-fluorophenyl)-4α-methyl-1,4,4α,5,6,7-hexahydrocyclopenta[f]indazol-5-yl]methyl}-N-(2-pyridin-2-ylethyl)ethanesulfonamide]
GITAR > GRAMM % SEP (human GR [1]): 21.0% | EC50 (human GR [1]): 1030 nM | Emax (human GR [1]; [3]): 23% | Emax (human GR [1]; [4]): > 5% | Emax (human GR [2]): 2% | EC50 (human GR [2]): 63.9 nM
